Data taken from US12121521B2, “Uses of salt-inducible kinase (SIK) inhibitors for treating osteoporosis” (The General Hospital Corporation, priority 2016, dated 2024).

Legend:
Assay type in all cases: cell-based, mouse
Ocy454 cells [1] = experiment: Immunoblotting of Ocy454 cell lysates (HDAC4/5, CRTC2, SIK2 phosphorylation and localisation); conditions: 10 uM, 90 minutes, compared to DMSO control; FIGS. 17 to 19
Method: The Ocy454 osteocyte cell line was treated for 90 minutes with the indicated compound at 10 uM dose (FIG. 17). Phospho-HDAC4 S246 levels were monitored by immunoblotting (top band) compared to DMSO control.
For all experiments, a single cell subclone of Ocy454 cells (17, 18) was used. Cells were passages in alpha-MEM supplemented with 10% heat-inactivated fetal bovine serum and 1% antibiotics (penicillin/streptomycin, Fungizone) at 33° C. with 5% CO2. Cells were plated at 50,000 cells/ml and allowed to reach confluency at 33° C. (typically in 2-3 days). At this point, cells were transferred to 37° C. for subsequent analysis. For immunoblotting, cells were always analyzed after culture at 37° C. for 7 days. For gene expression analysis, cells were analyzed after culture at 37° C. for 14 days. Mycoplasma contamination was ruled out by PCR. Cells were routinely assayed for SOST expression at 37° C. and examined for osteocytic morphology. […]

Ocy454 cells [2] = experiment: as above
Ocy454 cells [3] = experiment: Gene expression in Ocy454 cells by RT-qPCR; conditions: 0.5 μM, 3.5 hours; FIG. 21
Method: In FIG. 21, Ocy454 cells (osteocyte cell line, also known at 6-9 cells) were cultured at 37° C. for 2 weeks to permit osteocyte differentiation. The cells were then treated with the indicated compound (0.5 μM) for 3.5 hours, and gene expression was analyzed by RT-qPCR. SOST expression was reduced by the indicated compounds. RANKL expression was increased by the indicated compounds. […] Therefore, these changes in gene expression may be due to on-target effects of the indicated compound.
For all experiments, a single cell subclone of Ocy454 cells (17, 18) was used. Cells were passages in alpha-MEM supplemented with 10% heat-inactivated fetal bovine serum and 1% antibiotics (penicillin/streptomycin, Fungizone) at 33° C. with 5% CO2. Cells were plated at 50,000 cells/ml and allowed to reach confluency at 33° C. (typically in 2-3 days). At this point, cells were transferred to 37° C. for subsequent analysis. For immunoblotting, cells were always analyzed after culture at 37° C. for 7 days. For gene expression analysis, cells were analyzed after culture at 37° C. for 14 days. Mycoplasma contamination was ruled out by PCR. Cells were routinely assayed for SOST expression at 37° C. and examined for osteocytic morphology.
Total RNA was extracted from cultured cells using RNeasy (Qiagen, Venlo, Netherlands) following the manufacturer's instructions. For long bone RNA isolation, mice were sacrificed and both femurs were rapidly dissected on ice. Soft tissue was removed and epiphyses cut. Bone marrow cells were then removed by serial flushing with ice-cold PBS. TRIzol (Life Technologies) was added and sampled were frozen at −80C and then homogenized. RNA was then extracted per the manufacturer's instructions, and further purified on RNeasy microcolumns prior to cDNA synthesis. RNA with A260/280 ratio <1.7 was not used for downstream analysis. For cDNA synthesis, 1 μg RNA was used in synthesis reactions according to the instructions of the manufacturer (Primescript RT, Takara). SYBR Green-based qPCR detection was performed using FastStart Universal SYBR Green (Roche, Basel, Switzerland) on a StepOne Plus (Applied Biosystems, Carlsbad, CA) thermocycler.

Ocy454 cells [4] = experiment: Gene expression in Ocy454 cells by RT-qPCR; conditions: FIG. 5E
Ocy454 cells [5] = experiment: cAMP radioimmunoassay; conditions: 20 minutes; FIG. 14B
Method: Cells, in 96 well plates, were treated with indicated ligands for 20 minutes at room temperature in the presence of the phosphodiesterase inhibitor 3-isobutyl-1-methylxanthine (IBMX, Sigma I5879, 2 mM). The medium was then removed and cells were lysed in 50 mM HCl and transferred to −80C. Thawed lysates were diluted 1:5 with dH2O, and an 10 μl aliquot was assessed for cAMP content by radioimmunoassay using ^125I-cAMP analog as a tracer and unlabeled cAMP to generate a standard curve.

COc1ccc(N2C(=O)N(c3c(C)cccc3C)Cc3cnc(Nc4ccc(N5CCN(C)CC5)c(OC)c4)nc32)c(OC)c1 [YKL-04-114]
Phospho-HDAC4 S246 levels (Ocy454 cells [1]): showed the most clear results across multiple replicates | dose of optimal efficacy at the level of HDAC4/5 dephosphorylation (Ocy454 cells [2]; 60 minutes, FIG. 5C): ~1 µM | HDAC4/5 phosphorylation (Ocy454 cells [2]; FIGS. 5B and 5C): rapid, dose-dependent decreases in HDAC4/5 phosphorylation | RANKL expression (Ocy454 cells [3]): most active in these experiments at reducing SOST and increasing RANKL | SOST expression (Ocy454 cells [3]): most active in these experiments at reducing SOST | dose of optimal efficacy at the level of gene expression (Ocy454 cells [4]; 4 hours): ~0.5 µM | RANKL expression (Ocy454 cells [4]): RANKL up-regulation | SOST expression (Ocy454 cells [4]): rapid and potent SOST suppression | cAMP levels (Ocy454 cells [5]): without increasing cAMP levels

C=C1[C@@H](O)[C@@H]2O[C@]3(CC[C@H](/C=C/[C@@H](C)[C@@H]4CC(C)=C[C@@]5(O[C@H](C[C@@](C)(O)C(=O)O)CC[C@H]5O)O4)O3)CC[C@H]2O[C@@H]1[C@@H](O)C[C@H](C)[C@H]1O[C@@]2(CCCCO2)CC[C@H]1C [okadaic acid, reference compound]
block of PTH-mediated decreased HDAC4/5 phosphorylation or SOST suppression (Ocy454 cells [2]; okadaic acid 300 nM plus PTH, FIGS. 13B and 13C): did not block PTH-mediated decreased HDAC4/5 phosphorylation or SOST suppression
